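A five-concentration, 48-hour dose response in 96-well plates underlies each endpoint, interpolated linearly between surrounding concentrations. The concentration for 50% growth inhibition is given as GI50. TGI: concentration producing complete growth inhibition.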

Some test systems named below: HOP-92 NSCLC; NCI-H226 lung; RXF 393 renal; SK-MEL-2 melanoma; SK-OV-3 ovarian; SNB-75 CNS; TK-10 renal.
Test in all cases: NCI-60 cell line screen, 48 h

Take `CCN1CCN(Cc2ccc(C(=O)Nc3nc4ccc(Oc5ccnc(C(=O)NC)c5)cc4s3)cc2C(F)(F)F)CC1`: the GI50 was 1.01 µM in the experiment on HOP-92 NSCLC; 2.03 µM in the experiment with NCI-H226 lung; 1.48 µM in the experiment on RXF 393 renal; 1.23 µM in the experiment with SK-MEL-2 melanoma; 7.95 µM in the experiment on SK-OV-3 ovarian; 4.05 µM in the experiment on SNB-75 CNS. For the same compound, in the experiment with TK-10 renal, the GI50 is 2.65 µM. The TGI in the experiment on HOP-92 NSCLC was 7.26 µM; in the experiment with NCI-H226 lung it was greater than 100 µM; in the experiment with RXF 393 renal it was 2.95 µM; in the experiment on SK-MEL-2 melanoma, 3.22 µM; in the experiment with SK-OV-3 ovarian, 32.2 µM; with SNB-75 CNS it was 20.8 µM. Besides, the TGI in the experiment on TK-10 renal was 6.83 µM.

For the origin of these results see PubChem BioAssay (NCI).
